Patent US20240109917A1 (ACTELION PHARMACEUTICALS LTD, priority 2020, published 2024)

Columns and labels:
VEGFR2, unphosphorylated = VEGFR2, unphosphorylated (Homo sapiens (Human), UniProt P35968); assay: VEGFR ADP GLO Assay; assay type: biochemical
[1] = biological target: Tb-labeled inactive PDGFRβ (Homo sapiens (Human), UniProt P09619); assay: PDGFRβ LanthaScreen Assay; assay type: binding; conditions: read-out: PDGFR Lantha IC50
[2] = biological target: His6-TEV-PDGFRβ (557-1016) (Homo sapiens (Human), UniProt P09619); assay: PDGFRβ HTRF Assay; assay type: biochemical; conditions: read-out: PDGFR HTRF IC50
Procedure, shortened: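 Human PDGFRβ (557-1016) pre-incubated with compound for 30 min at RT in pH 7.5 HEPES/MgCl2/EGTA/Brij-35/DTT buffer. Reaction started with ATP and TK-biotin peptide, run 3 h at RT, then quenched with EDTA-containing Eu-cryptate antibody/streptavidin-XL665. HTRF 665/620 nm ratio read after 60 min; percent inhibition relative to DMSO and 10 μM imatinib controls.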

His6-TEV-PDGFRβ (557-1016), sequence (P09619 557-1016): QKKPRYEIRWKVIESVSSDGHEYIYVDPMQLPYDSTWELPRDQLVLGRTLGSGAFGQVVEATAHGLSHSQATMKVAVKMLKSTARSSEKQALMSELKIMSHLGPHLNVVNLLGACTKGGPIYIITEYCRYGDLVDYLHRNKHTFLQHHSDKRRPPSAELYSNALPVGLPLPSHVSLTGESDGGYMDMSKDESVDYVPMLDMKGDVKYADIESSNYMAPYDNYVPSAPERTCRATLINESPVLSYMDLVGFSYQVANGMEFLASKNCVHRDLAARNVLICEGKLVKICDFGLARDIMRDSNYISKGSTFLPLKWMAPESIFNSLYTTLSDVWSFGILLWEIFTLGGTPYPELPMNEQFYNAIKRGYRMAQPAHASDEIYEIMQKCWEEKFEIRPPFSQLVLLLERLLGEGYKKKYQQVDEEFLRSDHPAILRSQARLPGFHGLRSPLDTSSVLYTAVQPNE
VEGFR2, unphosphorylated, sequence (P35968 20-1356): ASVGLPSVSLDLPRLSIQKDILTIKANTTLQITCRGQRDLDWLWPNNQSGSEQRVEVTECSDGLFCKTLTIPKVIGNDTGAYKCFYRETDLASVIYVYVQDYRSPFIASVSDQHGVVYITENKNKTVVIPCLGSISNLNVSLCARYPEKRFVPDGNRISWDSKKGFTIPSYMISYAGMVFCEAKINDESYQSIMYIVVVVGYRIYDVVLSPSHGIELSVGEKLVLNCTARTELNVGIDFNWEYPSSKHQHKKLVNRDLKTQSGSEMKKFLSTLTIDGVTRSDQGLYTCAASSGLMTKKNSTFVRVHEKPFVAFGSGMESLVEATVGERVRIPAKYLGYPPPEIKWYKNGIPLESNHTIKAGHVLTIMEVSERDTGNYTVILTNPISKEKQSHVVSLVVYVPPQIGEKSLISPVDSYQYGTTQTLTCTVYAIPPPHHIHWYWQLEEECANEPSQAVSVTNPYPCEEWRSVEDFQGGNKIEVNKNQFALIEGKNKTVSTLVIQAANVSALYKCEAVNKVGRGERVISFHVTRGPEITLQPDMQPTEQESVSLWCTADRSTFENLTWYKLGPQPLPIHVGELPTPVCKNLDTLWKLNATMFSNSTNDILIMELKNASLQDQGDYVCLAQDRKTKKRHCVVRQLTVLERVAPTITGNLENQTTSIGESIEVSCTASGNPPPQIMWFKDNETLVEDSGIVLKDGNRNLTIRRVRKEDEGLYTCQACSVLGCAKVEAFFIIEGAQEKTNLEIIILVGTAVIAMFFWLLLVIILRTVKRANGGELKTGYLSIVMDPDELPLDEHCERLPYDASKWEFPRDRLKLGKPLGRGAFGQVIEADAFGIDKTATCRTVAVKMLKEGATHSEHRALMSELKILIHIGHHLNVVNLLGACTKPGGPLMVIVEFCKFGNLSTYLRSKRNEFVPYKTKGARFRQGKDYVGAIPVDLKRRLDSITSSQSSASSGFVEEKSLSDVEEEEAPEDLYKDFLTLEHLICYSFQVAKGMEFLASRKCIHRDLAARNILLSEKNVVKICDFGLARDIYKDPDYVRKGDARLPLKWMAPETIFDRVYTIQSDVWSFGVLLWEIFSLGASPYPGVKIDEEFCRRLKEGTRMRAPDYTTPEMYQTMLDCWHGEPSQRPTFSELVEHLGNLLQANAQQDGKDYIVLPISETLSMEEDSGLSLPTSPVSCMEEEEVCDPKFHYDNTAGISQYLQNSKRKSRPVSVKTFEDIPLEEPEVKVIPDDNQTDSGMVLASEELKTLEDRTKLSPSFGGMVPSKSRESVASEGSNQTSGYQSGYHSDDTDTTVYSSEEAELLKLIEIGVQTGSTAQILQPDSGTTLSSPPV
Tb-labeled inactive PDGFRβ, sequence (P09619 33-1106): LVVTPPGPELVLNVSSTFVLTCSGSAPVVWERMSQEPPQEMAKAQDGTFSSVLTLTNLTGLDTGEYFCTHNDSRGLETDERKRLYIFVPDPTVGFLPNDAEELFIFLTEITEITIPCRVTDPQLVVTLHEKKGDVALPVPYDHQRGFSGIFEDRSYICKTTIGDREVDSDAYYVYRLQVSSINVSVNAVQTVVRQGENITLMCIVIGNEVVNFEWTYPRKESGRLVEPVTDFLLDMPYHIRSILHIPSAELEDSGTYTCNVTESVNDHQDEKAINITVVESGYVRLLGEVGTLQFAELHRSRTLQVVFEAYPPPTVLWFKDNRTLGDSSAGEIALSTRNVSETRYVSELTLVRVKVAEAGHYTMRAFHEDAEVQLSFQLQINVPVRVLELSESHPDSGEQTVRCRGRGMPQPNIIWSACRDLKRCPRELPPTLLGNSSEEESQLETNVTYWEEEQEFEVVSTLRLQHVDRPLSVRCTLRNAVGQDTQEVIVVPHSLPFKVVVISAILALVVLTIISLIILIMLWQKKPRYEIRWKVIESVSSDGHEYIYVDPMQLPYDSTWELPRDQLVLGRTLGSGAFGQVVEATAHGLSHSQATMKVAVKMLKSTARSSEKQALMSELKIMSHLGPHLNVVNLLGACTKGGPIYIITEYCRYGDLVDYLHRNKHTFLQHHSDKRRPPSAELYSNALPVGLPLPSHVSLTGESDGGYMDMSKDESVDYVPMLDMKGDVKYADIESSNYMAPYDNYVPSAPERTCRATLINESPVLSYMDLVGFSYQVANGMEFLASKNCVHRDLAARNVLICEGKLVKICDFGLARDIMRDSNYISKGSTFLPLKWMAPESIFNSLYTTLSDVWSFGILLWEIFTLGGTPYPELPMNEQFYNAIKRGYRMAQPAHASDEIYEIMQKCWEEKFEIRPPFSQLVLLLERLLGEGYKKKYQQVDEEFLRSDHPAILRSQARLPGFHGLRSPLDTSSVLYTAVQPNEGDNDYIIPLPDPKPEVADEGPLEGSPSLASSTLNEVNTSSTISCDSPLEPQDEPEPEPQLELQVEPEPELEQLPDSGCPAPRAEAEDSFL

Row | SMILES | IC50 (VEGFR2, unphosphorylated) | IC50 [1] | IC50 [2]
1 | Cc1ncc(NC(=O)CN2CCO[C@H](C)C2)cc1NC(=O)c1cnn2cc(-c3cnn(C)c3)sc12 [Example 54, (R)-2-(1-methyl-1H-pyrazol-4-yl)-N-(2-methyl-5-(2-(2-methylmorpholino)acetamido)pyridin-3-yl)pyrazolo[5,1-b]thiazole-7-carboxamide] | > 7500 nM | 12.8 nM | 0.5 nM
2 | COCCn1cc(-c2cn3ncc(C(=O)Nc4cc(NC(=O)C5(CN6CCCC6(C)C)CC5)cnc4C)c3s2)cn1 [Example 487, N-(5-(1-((2,2-dimethylpyrrolidin-1-yl)methyl)cyclopropane-carboxamido)-2-methylpyridin-3-yl)-2-(1-(2-methoxyethyl)-1H-pyrazol-4-yl)pyrazolo[5,1-b]thiazole-7-carboxamide] | > 7500 nM | 197 nM | 7.7 nM
3 | Cc1ncc(NC(=O)CCN2CCCC2(C)C)cc1NC(=O)c1cnn2cc(-c3cnn(CCO)c3)sc12 [Example 88, N-(5-(3-(2,2-dimethylpyrrolidin-1-yl)propanamido)-2-methylpyridin-3-yl)-2-(1-(2-hydroxyethyl)-1H-pyrazol-4-yl)pyrazolo[5,1-b]thiazole-7-carboxamide] | > 7500 nM | 4.2 nM | 0.4 nM
4 | Cc1ncc(NC(=O)CN2CCC3(CCO3)CC2)cc1NC(=O)c1cnn2cc(-c3cnn(C)c3)sc12 [Example 81, N-(5-(2-(1-oxa-7-azaspiro[3.5]nonan-7-yl)acetamido)-2-methylpyridin-3-yl)-2-(1-methyl-1H-pyrazol-4-yl)pyrazolo[5,1-b]thiazole-7-carboxamide] | > 7500 nM | 76.8 nM | 2.8 nM
5 | COCCn1cc(-c2cn3ncc(C(=O)Nc4cc(NC(=O)CCN5CCC6(CCC6)C5)cnc4C)c3s2)cn1 [Example 90, N-(5-(3-(6-azaspiro[3.4]octan-6-yl)propanamido)-2-methylpyridin-3-yl)-2-(1-(2-methoxyethyl)-1H-pyrazol-4-yl)pyrazolo[5,1-b]thiazole-7-carboxamide] | > 2500 nM | 10.6 nM | 0.5 nM
6 | COCCn1cc(-c2cn3ncc(C(=O)Nc4cc(NC(=O)C[C@H]5CCCN5C(C)C)cnc4C)c3s2)cn1 [Example 485, (R)—N-(5-(2-(1-isopropylpyrrolidin-2-yl)acetamido)-2-methylpyridin-3-yl)-2-(1-(2-methoxyethyl)-1H-pyrazol-4-yl)pyrazolo[5,1-b]thiazole-7-carboxamide] | > 7500 nM | 16.3 nM | 0.8 nM
7 | Cc1ncc(NC(=O)CN2CCc3cccnc3C2)cc1NC(=O)c1cnn2cc(-c3cnn(C)c3)sc12 [Example 60, N-(5-(2-(5,6-dihydro-1,7-naphthyridin-7 (8H)-yl)acetamido)-2-methylpyridin-3-yl)-2-(1-methyl-1H-pyrazol-4-yl)pyrazolo[5,1-b]thiazole-7-carboxamide] | > 7500 nM | 18.3 nM | 1 nM
8 | COCCn1cc(-c2cn3ncc(C(=O)Nc4cc(NC(=O)C[C@H]5CCN(C(C)C)C5)cnc4C)c3s2)cn1 [Example 486, (R)—N-(5-(2-(1-isopropylpyrrolidin-3-yl)acetamido)-2-methylpyridin-3-yl)-2-(1-(2-methoxyethyl)-1H-pyrazol-4-yl)pyrazolo[5,1-b]thiazole-7-carboxamide] | > 7500 nM | 127 nM | 2.6 nM
9 | Cc1ncc(NC(=O)CN2C3CCC2COC3)cc1NC(=O)c1cnn2cc(-c3cnn(C)c3)sc12 [Example 44, N-(5-(2-(3-oxa-8-azabicyclo[3.2.1]octan-8-yl)acetamido)-2-methylpyridin-3-yl)-2-(1-methyl-1H-pyrazol-4-yl)pyrazolo[5,1-b]thiazole-7-carboxamide] | > 7500 nM | 11.6 nM | 1.3 nM
10 | Cc1ncc(NC(=O)CN2CCCC23CC3)cc1NC(=O)c1cnn2cc(-c3cnn(CCO)c3)sc12 [Example 87, N-(5-(2-(4-azaspiro[2.4]heptan-4-yl)acetamido)-2-methylpyridin-3-yl)-2-(1-(2-hydroxyethyl)-1H-pyrazol-4-yl)pyrazolo[5,1-b]thiazole-7-carboxamide] | > 7500 nM | 3.2 nM | 0.4 nM
11 | Cc1ncc(NC(=O)CNC2CCC2)cc1NC(=O)c1cnn2cc(-c3cnn4c3OCCC4)sc12 [Example 494, N-(5-(2-(cyclobutylamino)acetamido)-2-methylpyridin-3-yl)-2-(6,7-dihydro-5H-pyrazolo[5,1-b][1,3]oxazin-3-yl)pyrazolo[5,1-b]thiazole-7-carboxamide] | > 7500 nM | 3.9 nM | 0.4 nM
12 | Cc1ncc(NC(=O)CN2CCOC[C@@H]2C)cc1NC(=O)c1cnn2cc(-c3cnn(C)c3)sc12 [Example 74, (S)-2-(1-methyl-1H-pyrazol-4-yl)-N-(2-methyl-5-(2-(3-methylmorpholino)acetamido)pyridin-3-yl)pyrazolo[5,1-b]thiazole-7-carboxamide] | > 7500 nM | 24.2 nM | 1 nM
13 | Cc1ncc(NC(=O)CN2CCCC(F)(F)C2)cc1NC(=O)c1cnn2cc(-c3cnn(C)c3)sc12 [Example 49, N-(5-(2-(3,3-difluoropiperidin-1-yl)acetamido)-2-methylpyridin-3-yl)-2-(1-methyl-1H-pyrazol-4-yl)pyrazolo[5,1-b]thiazole-7-carboxamide] | > 7500 nM | 2.1 nM | 0.4 nM
14 | CC[C@H]1CN(CC(=O)Nc2cnc(C)c(NC(=O)c3cnn4cc(-c5cnn(C)c5)sc34)c2)CCO1 [Example 66, (S)—N-(5-(2-(2-ethylmorpholino)acetamido)-2-methylpyridin-3-yl)-2-(1-methyl-1H-pyrazol-4-yl)pyrazolo[5,1-b]thiazole-7-carboxamide] | > 7500 nM | 2.6 nM | 0.3 nM
15 | Cc1ncc(NC(=O)CN2CCOCC2(C)C)cc1NC(=O)c1cnn2cc(-c3cnn(C)c3)sc12 [Example 68, N-(5-(2-(3,3-dimethylmorpholino)acetamido)-2-methylpyridin-3-yl)-2-(1-methyl-1H-pyrazol-4-yl)pyrazolo[5,1-b]thiazole-7-carboxamide] | > 7500 nM | 8.1 nM | 0.8 nM
16 | Cc1ncc(C(=O)NCCN2CC3CCC2CC3)cc1NC(=O)c1cnn2cc(-c3ccnc(N4CCOCC4)c3)sc12 [Example 484, N-(5-((2-(2-azabicyclo[2.2.2]octan-2-yl)ethyl)carbamoyl)-2-methylpyridin-3-yl)-2-(2-morpholinopyridin-4-yl)pyrazolo[5,1-b]thiazole-7-carboxamide] | > 7500 nM | 1.4 nM | 0.2 nM
17 | Cc1ncc(NC(=O)CN2CCOC(C)(C)C2)cc1NC(=O)c1cnn2cc(-c3cnn(C)c3)sc12 [Example 67, N-(5-(2-(2,2-dimethylmorpholino)acetamido)-2-methylpyridin-3-yl)-2-(1-methyl-1H-pyrazol-4-yl)pyrazolo[5,1-b]thiazole-7-carboxamide] | > 7500 nM | 5.7 nM | 1 nM
18 | Cc1ncc(NC(=O)CN2CC3CC(C2)O3)cc1NC(=O)c1cnn2cc(-c3cnn(C)c3)sc12 [Example 45, N-(5-(2-(6-oxa-3-azabicyclo[3.1.1]heptan-3-yl)acetamido)-2-methylpyridin-3-yl)-2-(1-methyl-1H-pyrazol-4-yl)pyrazolo[5,1-b]thiazole-7-carboxamide] | > 7500 nM | 31 nM | 1 nM
19 | Cc1ncc(NC(=O)CN2CCc3c(cnn3C)C2)cc1NC(=O)c1cnn2cc(-c3cnn(C)c3)sc12 [Example 57, 2-(1-methyl-1H-pyrazol-4-yl)-N-(2-methyl-5-(2-(1-methyl-6,7-dihydro-1H-pyrazolo[4,3-c]pyridin-5 (4H)-yl)acetamido)pyridin-3-yl)pyrazolo[5,1-b]thiazole-7-carboxamide] | > 7500 nM | 10.8 nM | 1 nM
20 | Cc1ncc(NC(=O)CN2CCC3(CC2)COC3)cc1NC(=O)c1cnn2cc(-c3cnn(C)c3)sc12 [Example 46, N-(5-(2-(2-oxa-7-azaspiro[3.5]nonan-7-yl)acetamido)-2-methylpyridin-3-yl)-2-(1-methyl-1H-pyrazol-4-yl)pyrazolo[5,1-b]thiazole-7-carboxamide] | > 7500 nM | 89 nM | 3 nM
21 | Cc1ncc(NC(=O)CN2CCn3ccnc3C2)cc1NC(=O)c1cnn2cc(-c3cnn(C)c3)sc12 [Example 75, N-(5-(2-(5,6-dihydroimidazo[1,2-a]pyrazin-7 (8H)-yl)acetamido)-2-methylpyridin-3-yl)-2-(1-methyl-1H-pyrazol-4-yl)pyrazolo[5,1-b]thiazole-7-carboxamide] | > 7500 nM | 47 nM | 4.1 nM
